Measured values taken from patent US5916906A, “Compositions comprising nicotinylalanine and an inhibitor of glycine conjugation or vitamin B6” (priority 1997, dated 1999).
Where “and” joins values, the source holds several entries; their conditions need not be identical. Identical values can stand only once.

How the values were obtained:
Type in all cases: in vivo, C57BL/6 mice
[1] = Plasma nicotinamide levels in LP-BM5 infected mice (HPLC); conditions: NAL 400 mg/kg, ASA 20 mg/kg; for Ratio of plasma nicotinamide mean to placebo (PBS Control, Group 1): AZT as in Table 4; for Mean Plasma Nicotinamide Level: virus-positive, ~24 h after last treatment, AZT printed 1 mg/kg, mean ± SD
Description: Mice were sacrificed on Tuesdays at monthly intervals after
inoculation, approximately 24 hours after their last treatment.
At time of sacrifice, blood was collected by cardiac puncture and stored
Results are expressed as mean concentrations ± standard deviation in

LP-BM5 MuLV Retrovirus = experiment: MAIDS model, interim sacrifices: body weight, disease score, spleen weight; conditions: treatment from day 1: NAL 400 mg/kg i.p., ASA 20 mg/kg i.p., AZT 1 mg/ml in drink water; for Body Wt. / Spleen Wt.: individual mouse; for Disease Score: scores 0 through +4, individual mouse
Description: This study was designed to determine whether nicotinylalanine (NAL) alone or in combination with acetylsalicylic acid (ASA) will prevent or alter the course of murine retroviral-induced immunodeficiency disease, MAIDS, in C57BL/6 female mice. The LP-BM5 MuLV virus used for these studies was prepared from chronically infected SC-1 cells (ATCC Cat. No. CRL-1404), as described by Yetter R. A. et al., J. Exp. Med., 168, 623-635, 1988. […] The MAIDS model is well characterized and reproducible in the laboratory, as described by Mosier D. E. et al., J. Exp. Med. 161, 766-784, 1985.
Measures of disease progression followed the methods developed by Eiseman et al., 1991 (Ibid). Disease scores 0 through +4 are based upon body weight gain and palpable alterations in the size of lymph nodes and spleen. Severity of disease is scored as follows: 0.5, increased body weight and variably detected increase in size of any one lymph node or spleen; +1, clearly detectable increase in the size of a lymph node and spleen; +2, readily detectable (greater than 0.3 cm in diameter) increased size in more than one lymph node and, in particular, enlargement of subcervical, brachial or axillary nodes; +3, increased size of all palpable nodes and palpable splenomegaly (≥0.3 grams); +4, advanced disease with extensive splenomegaly (>1.0 grams) and lymphadenopathy.
Specific pathogen free, female C57BL/6 mice (5 weeks of age) were purchased from Charles River Breeding Laboratories. All mice were allowed one week to acclimate to housing facilities prior to randomization for study. Animals were marked for identification and placed in microisolator cages with identifying cards (5 mice/cage), where autoclaved food and water were provided ad libitum.
NAL and ASA were formulated under sterile conditions according to preformulation methods outlined in Remington's Pharmaceutical Sciences Handbook, 18th Edition, 1990, ibid). NAL and ASA were dissolved in sterile phosphate-buffered normal saline solution (i.e., vehicle; Biofluids Inc., Lot 413054), adjusted to between pH 7.2 to 7.4 with […], sterilized by filtration through 0.2 μm bottle-type filters, and dispersed into sterile glass vials, sealed and capped (Wheaton Inc.).
Except for Group 6 (which began treatment 2 weeks after virus inoculation),test drug injections began 1 day after virus infection and continued every day except weekends (i.e., 5 times per week).
(§1) Disease progression was monitored by measuring serum IgM levels by ELISA on all animals at monthly intervals during the course of disease. Three mice per group were randomly selected and sacrificed at monthly intervals (end of month one through four) of the study. Disease scores for each animal were recorded weekly based upon palpation of lymph nodes and spleen. Complete gross necropsies were performed on these euthanized animals and the ratio of recorded spleen to body weights was an additional indicator of diseases progression. […] Infection was quantified by ecotropic virus XC plaque assays of spleens removed from the interim sacrificed animals.

[2] = Hematocrit of LP-BM5 infected mice (hematopoietic toxicity); conditions: for Mean Hematocrit: virus-positive, NAL 400 mg/kg, ASA 20 mg/kg, AZT printed 1 mg/kg
Description: as §1, with “animals. The study was to be terminated when mice were either dead or disease scores were +4 in more than 50% of the vehicle-treated MAIDS controls (Group 1), which occurred at 19 weeks post-inoculation of the virus pool. However, as the remaining mice in Group 1 were slow to progress towards more severe disease (FIG. 5) or death (FIG. 6), the study was extended until a termination date of 28 weeks post-inoculation.” for “animals.”
Mice were maintained through the fifth month post virus inoculation until

SMILES: Cc1cn([C@H]2C[C@H](N=[N+]=[N-])[C@@H](CO)O2)c(=O)[nH]c1=O [AZT, 3'azido-3'deoxythymidine, reference compound]
- Ratio of plasma nicotinamide mean to placebo (PBS Control, Group 1) ([1]; Month 1): 1.59
- Mean Plasma Nicotinamide Level ([1]; Month 1): 5.1 ± 0.6 nmol/mL
- Ratio of plasma nicotinamide mean to placebo (PBS Control, Group 1) ([1]; Month 2): 1.54
- Mean Plasma Nicotinamide Level ([1]; Month 2): 6.0 ± 0.4 nmol/mL
- Ratio of plasma nicotinamide mean to placebo (PBS Control, Group 1) ([1]; Month 3): 2.26
- Mean Plasma Nicotinamide Level ([1]; Month 3): 5.2 ± 3.0 nmol/mL
- Mean Plasma Nicotinamide Level ([1]; Month 4): 5.8 ± 0.4 nmol/mL
- Body Wt. (LP-BM5 MuLV Retrovirus; 1 month postinoculation): 21.1 Grams and 20.9 Grams and 19.6 Grams
- Spleen Wt. (LP-BM5 MuLV Retrovirus; 1 month postinoculation): 0.097 Grams and 0.108 Grams and 0.096 Grams
- Disease Score (LP-BM5 MuLV Retrovirus; 1 month postinoculation): 0 and 0.5
- Body Wt. (LP-BM5 MuLV Retrovirus; 2 months postinoculation): 20.9 Grams and 20.0 Grams and 22.6 Grams
- Spleen Wt. (LP-BM5 MuLV Retrovirus; 2 months postinoculation): 0.090 Grams and 0.104 Grams and 0.086 Grams
- Disease Score (LP-BM5 MuLV Retrovirus; 2 months postinoculation): 0
- Body Wt. (LP-BM5 MuLV Retrovirus; 3 months postinoculation): 23.8 Grams and 23.5 Grams and 25.4 Grams
- Spleen Wt. (LP-BM5 MuLV Retrovirus; 3 months postinoculation): 0.118 Grams and 0.114 Grams and 0.112 Grams
- Disease Score (LP-BM5 MuLV Retrovirus; 3 months postinoculation): 0.5
- Body Wt. (LP-BM5 MuLV Retrovirus; 4 months postinoculation): 25.0 Grams and 21.1 Grams and 28.6 Grams
- Spleen Wt. (LP-BM5 MuLV Retrovirus; 4 months postinoculation): 0.262 Grams and 0.086 Grams and 0.150 Grams
- Disease Score (LP-BM5 MuLV Retrovirus; 4 months postinoculation): 2 and 0 and 1
- Mean Hematocrit ([2]; Month 1 (10 bled)): 41.7 ± 4.0%
- Mean Hematocrit ([2]; Month 2 (10 bled)): 42.7 ± 2.4%
- Mean Hematocrit ([2]; Month 3 (7 bled)): 41.9 ± 1.7%
- Mean Hematocrit ([2]; Month 4 (11 bled)): 42.6 ± 3.0%
- Mean hematocrit over the four months sampled ([2]; NAL plus AZT (Group 5), AZT alone (Group 7)): ~42.6%
- Hematopoietic toxicity ([2]; one-month interim assessment, AZT in drinking water): hematopoietic toxicity was already manifest
